Data reported in PubChem BioAssay AID248 (DTP/NCI, 2004).
Several values for one entry are separate records, joined by “and”; a condition that tells them apart may be missing. Equal entries are not always repeated. Toxic doses and inconclusive results are not listed. Rule as the data show it: active = T/C of 150% or more; inactive = T/C below 125%.

Tested on: L1210 leukemia ip in BDF1 mice, survival T/C
Test: NCI In Vivo Anticancer Drug Screen. Data for tumor model L1210 Leukemia (intraperitoneal) in B6D2F1 (BDF1) mice
Conditions: endpoint: mean survival time, higher = longer survival
In short: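 Each compound was tested against a transplantable tumor grown in mice. The endpoint was survival, with treated animals benchmarked against vehicle controls as a simple ratio.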

[1] = dose: 100.0 mg/kg/injection, schedule: Q01DX001 (ip), vehicle: Klucel (hydroxypropylcellulose) (HPC)
[2] = dose: 200.0 mg/kg/injection, schedule: Q01DX001 (ip), vehicle: Klucel (hydroxypropylcellulose) (HPC)
[3] = dose: 400.0 mg/kg/injection, schedule: Q01DX001 (ip), vehicle: Klucel (hydroxypropylcellulose) (HPC)
[4] = dose: 100.0 mg/kg/injection, schedule: Q01DX009 (ip), vehicle: saline
[5] = dose: 100.0 mg/kg/injection, schedule: Q04DX003 (ip), vehicle: saline
[6] = dose: 100.0 mg/kg/injection, schedule: Q01DX001 (ip), vehicle: saline
[7] = dose: 200.0 mg/kg/injection, schedule: Q01DX001 (ip), vehicle: saline
[8] = dose: 400.0 mg/kg/injection, schedule: Q01DX001 (ip), vehicle: saline
[9] = dose: 50.0 mg/kg/injection, schedule: Q01DX001 (ip), vehicle: saline
[10] = dose: 100.0 mg/kg/injection, schedule: Q04DX003 (ip), vehicle: saline with Tween-80
[11] = dose: 200.0 mg/kg/injection, schedule: Q04DX003 (ip), vehicle: saline with Tween-80
[12] = dose: 400.0 mg/kg/injection, schedule: Q04DX003 (ip), vehicle: saline with Tween-80
[13] = dose: 100.0 mg/kg/injection, schedule: Q01DX009 (ip), vehicle: Klucel (hydroxypropylcellulose) (HPC)
[14] = dose: 200.0 mg/kg/injection, schedule: Q01DX009 (ip), vehicle: Klucel (hydroxypropylcellulose) (HPC)
[15] = dose: 400.0 mg/kg/injection, schedule: Q01DX009 (ip), vehicle: Klucel (hydroxypropylcellulose) (HPC)
[16] = dose: 100.0 mg/kg/injection, schedule: Q01DX001 (ip), vehicle: carboxymethylcellulose (CMC)
[17] = dose: 200.0 mg/kg/injection, schedule: Q01DX001 (ip), vehicle: carboxymethylcellulose (CMC)
[18] = dose: 400.0 mg/kg/injection, schedule: Q01DX001 (ip), vehicle: carboxymethylcellulose (CMC)
[19] = dose: 50.0 mg/kg/injection, schedule: Q01DX001 (ip), vehicle: carboxymethylcellulose (CMC)
[20] = dose: 6.25 mg/kg/injection, schedule: Q01DX009 (ip), vehicle: saline with Tween-80
[21] = dose: 12.5 mg/kg/injection, schedule: Q01DX009 (ip), vehicle: saline with Tween-80

Measured: T/C

COC1OC2COCOC2C(O)C1O (configuration not stated)
inactive: dose: 25.0 mg/kg/injection, schedule: Q04DX002 (ip), vehicle: saline 93 % of control and 104 % of control | dose: 50.0 mg/kg/injection, schedule: Q04DX002 (ip), vehicle: saline 108 % of control | dose: 100.0 mg/kg/injection, schedule: Q04DX002 (ip), vehicle: saline 100 % of control [middle of 4 runs] | dose: 200.0 mg/kg/injection, schedule: Q04DX002 (ip), vehicle: saline 106 % of control and 100 % of control | dose: 400.0 mg/kg/injection, schedule: Q04DX002 (ip), vehicle: saline 103 % of control and 100 % of control

O=C(COc1ccccc1Cl)Nc1cccnc1
inactive: [1] 113 % of control | [2] 103 % of control | [3] 103 % of control

COc1ccc(CC2=NCCc3cc(OC)c(OC)cc32)cc1OC
inactive: dose: 75.0 mg/kg/injection, schedule: Q01DX001 (ip), vehicle: saline 97 % of control | [4] 96 % of control and 90 % of control | [5] 110 % of control and 89 % of control | dose: 150.0 mg/kg/injection, schedule: Q01DX001 (ip), vehicle: saline 100 % of control

COC(=O)c1ccc2c3c(ccc(C(=O)OC)c13)C=C2
inactive: [6] 102 % of control | [7] 94 % of control | [8] 95 % of control

O=C(CCCC(=O)NNC(=O)Nc1ccc(N=Nc2ccccc2)cc1)NNC(=O)Nc1ccc(N=Nc2ccccc2)cc1
inactive: [9] 93 % of control | [6] 102 % of control | [7] 96 % of control | [8] 100 % of control

O=C(N/N=C\c1cc(=O)[nH]c(=O)[nH]1)c1ccccc1
inactive: [6] 100 % of control

O=C(Nc1ccccc1)c1cc(Cl)ccc1O
inactive: dose: 100.0 mg/kg/injection, schedule: Q01DX009 (ip), vehicle: saline with Tween-80 95 % of control | [10] 86 % of control | dose: 200.0 mg/kg/injection, schedule: Q01DX009 (ip), vehicle: saline with Tween-80 95 % of control | [11] 94 % of control | dose: 400.0 mg/kg/injection, schedule: Q01DX009 (ip), vehicle: saline with Tween-80 95 % of control | [12] 87 % of control

CC1(C)N=C(N)N=C(N)N1c1cccc(CN)c1
inactive: dose: 25.0 mg/kg/injection, schedule: Q01DX009 (ip), vehicle: saline 101 % of control | dose: 25.0 mg/kg/injection, schedule: Q04DX003 (ip), vehicle: saline 101 % of control | dose: 50.0 mg/kg/injection, schedule: Q01DX009 (ip), vehicle: saline 102 % of control and 103 % of control | dose: 50.0 mg/kg/injection, schedule: Q04DX003 (ip), vehicle: saline 103 % of control | [4] 98 % of control and 86 % of control | [5] 102 % of control and 105 % of control

CCCCOCCOCCOc1ccc(C(=O)OC)cc1
inactive: dose: 100.0 mg/kg/injection, schedule: Q01DX001 (ip), vehicle: saline sonified 103 % of control | dose: 200.0 mg/kg/injection, schedule: Q01DX001 (ip), vehicle: saline sonified 96 % of control | dose: 400.0 mg/kg/injection, schedule: Q01DX001 (ip), vehicle: saline sonified 100 % of control

CSc1ccccc1N=NN(C)C
inactive: [13] 101 % of control | [14] 97 % of control and 105 % of control | [15] 95 % of control and 100 % of control | dose: 800.0 mg/kg/injection, schedule: Q01DX009 (ip), vehicle: Klucel (hydroxypropylcellulose) (HPC) 121 % of control

O=c1oc2ccccc2cc1P(=O)(O)O
inactive: [9] 91 % of control | [6] 95 % of control | [7] 95 % of control | [8] 97 % of control

CC1=CC(C)(C)NC(=S)N1c1cccc2ccccc12
inactive: dose: 75.0 mg/kg/injection, schedule: Q01DX009 (ip), vehicle: saline with Tween-80 90 % of control | dose: 150.0 mg/kg/injection, schedule: Q01DX009 (ip), vehicle: saline with Tween-80 87 % of control | dose: 224.0 mg/kg/injection, schedule: Q01DX Z (ip), vehicle: methylcellulose (MC) 94 % of control | dose: 300.0 mg/kg/injection, schedule: Q01DX009 (ip), vehicle: saline with Tween-80 88 % of control | dose: 334.0 mg/kg/injection, schedule: Q01DX Z (ip), vehicle: methylcellulose (MC) 86 % of control | dose: 500.0 mg/kg/injection, schedule: Q01DX Z (ip), vehicle: methylcellulose (MC) 88 % of control | dose: 750.0 mg/kg/injection, schedule: Q01DX Z (ip), vehicle: methylcellulose (MC) 102 % of control

CC(=O)Nc1ccc2c(c1)C(S)c1ccccc1-2 (configuration not stated)
inactive: [16] 112 % of control | [17] 114 % of control | [18] 101 % of control

COC(=O)Cc1cc(Cl)c2cc(C)ccc2n1
inactive: dose: 100.0 mg/kg/injection, schedule: Q01DX001 (ip), vehicle: other 95 % of control | dose: 200.0 mg/kg/injection, schedule: Q01DX001 (ip), vehicle: other 98 % of control | dose: 400.0 mg/kg/injection, schedule: Q01DX001 (ip), vehicle: other 96 % of control

COc1ccc(CN(C)C)c(C(O)c2ccccc2)c1 (configuration not stated)
inactive: [19] 101 % of control | [16] 103 % of control | [17] 103 % of control

CCOC(=O)/C=C(/C)N
inactive: dose: 100.0 mg/kg/injection, schedule: Q04DX002 (ip), vehicle: saline with Tween-80 95 % of control | dose: 200.0 mg/kg/injection, schedule: Q04DX002 (ip), vehicle: saline with Tween-80 91 % of control | dose: 400.0 mg/kg/injection, schedule: Q04DX002 (ip), vehicle: saline with Tween-80 95 % of control

Cc1cccc(NC(=O)OCCN(CCOC(=O)Nc2cccc(C)c2)Cc2ccccc2)c1
inactive: [19] 90 % of control | [16] 98 % of control | [17] 104 % of control | [18] 90 % of control

O=C(NC(=O)C(Cl)Cl)Nc1ccc2c(c1)Cc1ccccc1-2
inactive: [1] 95 % of control | [13] 100 % of control | dose: 100.0 mg/kg/injection, schedule: Q04DX003 (ip), vehicle: Klucel (hydroxypropylcellulose) (HPC) 102 % of control | [2] 100 % of control | [14] 98 % of control | dose: 200.0 mg/kg/injection, schedule: Q04DX003 (ip), vehicle: Klucel (hydroxypropylcellulose) (HPC) 96 % of control | [3] 100 % of control | [15] 104 % of control | dose: 400.0 mg/kg/injection, schedule: Q04DX003 (ip), vehicle: Klucel (hydroxypropylcellulose) (HPC) 96 % of control

C#CC(C)(O)CC (configuration not stated)
inactive: [6] 100 % of control | [7] 100 % of control | [8] 103 % of control

COC(=O)c1cc([N+](=O)[O-])ccc1Br
inactive: [10] 101 % of control | [11] 93 % of control | [12] 104 % of control

Cc1ccc(C(C)(C)C)c(OCC2=NCCN2)c1
inactive: dose: 10.0 mg/kg/injection, schedule: Q04DX003 (ip), vehicle: Klucel (hydroxypropylcellulose) (HPC) 96 % of control | dose: 12.5 mg/kg/injection, schedule: Q01DX009 (ip), vehicle: Klucel (hydroxypropylcellulose) (HPC) 86 % of control | dose: 20.0 mg/kg/injection, schedule: Q04DX003 (ip), vehicle: Klucel (hydroxypropylcellulose) (HPC) 90 % of control | dose: 25.0 mg/kg/injection, schedule: Q01DX009 (ip), vehicle: Klucel (hydroxypropylcellulose) (HPC) 96 % of control | dose: 40.0 mg/kg/injection, schedule: Q04DX003 (ip), vehicle: Klucel (hydroxypropylcellulose) (HPC) 96 % of control | dose: 50.0 mg/kg/injection, schedule: Q01DX009 (ip), vehicle: Klucel (hydroxypropylcellulose) (HPC) 104 % of control

Cc1ccc(N)cc1
inactive: [6] 114 % of control | [7] 102 % of control

C[N+](C)(C)CC1COCCO1 (configuration not stated)
inactive: dose: 5.0 mg/kg/injection, schedule: Q01DX001 (ip), vehicle: saline 105 % of control

C/C=C/C[P+](Cc1cccc(C)c1)(c1ccccc1)c1ccccc1
inactive: dose: 3.13 mg/kg/injection, schedule: Q01DX009 (ip), vehicle: saline with Tween-80 107 % of control | [20] 113 % of control | [21] 98 % of control

CCOC(=O)C1=C(C)NC(C)=C(C(=O)OCC)C1c1ccccc1[N+](=O)[O-]
inactive: [20] 97 % of control | [21] 108 % of control | dose: 25.0 mg/kg/injection, schedule: Q01DX009 (ip), vehicle: saline with Tween-80 98 % of control and 105 % of control | [10] 90 % of control
